Paper PMC8658948, “Exploring Amantadine Derivatives as Urease Inhibitors: Molecular Docking and Structure–Activity Relationship (SAR) Studies” (Molecules, 2021)
Read-outs that look alike come from different tables or passages of the source.

Assays:
[1] = DPPH free radical scavenging assay; conditions: 100 µg/mL, mean (SEM)
Protocol: The 2,2-diphenyl-1-picrylhydrazyl (DPPH) test was used to assess radical scavenging activity. By using ascorbic acid as a reference inhibitor, 100 µL of DPPH ([…]), 20 µL of escalating concentrations of test compounds, and the volume adjusted to 200 µL in each well with methanol were incubated for 30 min at room temperature. At 517 nm, an OPTI Max Tunable microplate reader was used to perform assay measurements. The % inhibition caused by the investigated inhibitors was calculated after response rates were compared.

Jack bean urease [2] = target: T1, Jack bean urease (Canavalia ensiformis, UniProt P07374); test: biochemical
Protocol: The amount of NH3 produced with indophenol’s method reported in the literature was used to estimate Jack bean urease activity. In a 96-well plate, reaction mixtures containing 20 µL of Jack bean urease at 5 U/mL and 20 µL of compounds in 50 µL of potassium phosphate buffer (100 mM urea, 10 mM K2HPO4, 1 mM EDTA, and 10 mM LiCl, pH 8.2) were incubated for 30 min at 37 °C. Briefly, 50 μL each of phenol reagents (1%, w/v phenol and 0.005%, w/v sodium nitroprusside) and 50 μL of alkali reagent (0.5%, w/v NaOH and 0.1% NaOCl were added to each well. The absorbance at 625 nm was evaluated after 10 min by utilizing a microplate reader (OPTIMax, Tunable). Each of the reactions was accomplished in triplicate. The urease inhibition activities were calculated using the following formula:(1) Urease inhibition activity %=ODcontrol−ODsample×100/ODcontrol where ODcontrol and ODsample represent the optical densities in the absence and presence of sample, respectively, by using thiourea as standard.

Jack bean urease [3] = target: T1, Jack bean urease; test: Kinetic analysis of urease inhibition (Lineweaver-Burk plot); format: biochemical; conditions: for Vmax: substrate urea
From the text: The kinetic studies of the enzyme by the Lineweaver–Burk plot of 1/V versus 1/[S] in the presence of different compound concentrations produced a series of straight lines (Figure 3A). […] Thus, compounds 3f inhibit the urease non-competitively in order to form an enzyme inhibitor complex.
Based on IC50 values, compound 3j was identified as the most powerful. Changing the concentration of urea at different concentrations of 3j (0.00, 0.0042, 0.0085, and 0.017 M) was used to study kinetics. For urease kinetics, the urea concentration was quickly adjusted from 100, 50, 25, 12.5, 6.25, and 3.12 mM. The highest preliminary velocities were determined from initial linear portion of absorbance up to 10 min after the addition of enzyme at per minute’s interval. The inhibition type was determined by Lineweaver-Burk plot (1/V) versus 1/[S] mM^−1. The EI dissociation constant Ki was ascertained by secondary plot of 1/V against inhibitor concentration. […] The results were processed by using SoftMaxPro.

T1 sequence (P07374 whole entry, looked up): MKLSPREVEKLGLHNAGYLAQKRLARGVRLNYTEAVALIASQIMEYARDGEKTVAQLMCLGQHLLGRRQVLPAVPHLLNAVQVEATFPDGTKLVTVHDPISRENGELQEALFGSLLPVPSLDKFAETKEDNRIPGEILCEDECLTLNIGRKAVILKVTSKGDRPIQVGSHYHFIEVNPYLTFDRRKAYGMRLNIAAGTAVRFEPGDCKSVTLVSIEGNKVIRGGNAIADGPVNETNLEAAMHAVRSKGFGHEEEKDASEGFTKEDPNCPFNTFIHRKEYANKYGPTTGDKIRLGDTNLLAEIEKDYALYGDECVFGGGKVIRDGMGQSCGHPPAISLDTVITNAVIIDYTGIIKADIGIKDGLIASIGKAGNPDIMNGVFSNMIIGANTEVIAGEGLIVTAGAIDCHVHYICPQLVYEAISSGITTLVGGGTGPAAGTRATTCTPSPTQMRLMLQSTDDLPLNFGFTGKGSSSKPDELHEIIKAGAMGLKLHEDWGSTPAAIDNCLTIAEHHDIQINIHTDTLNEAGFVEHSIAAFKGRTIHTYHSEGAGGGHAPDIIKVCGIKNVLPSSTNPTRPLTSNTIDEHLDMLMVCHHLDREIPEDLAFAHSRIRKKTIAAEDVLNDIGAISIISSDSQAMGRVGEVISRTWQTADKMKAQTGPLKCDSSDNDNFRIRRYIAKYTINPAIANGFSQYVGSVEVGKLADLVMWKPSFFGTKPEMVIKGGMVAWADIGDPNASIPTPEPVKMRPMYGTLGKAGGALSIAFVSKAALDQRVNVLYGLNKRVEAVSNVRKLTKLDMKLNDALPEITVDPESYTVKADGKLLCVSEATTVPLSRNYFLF

Compound | melting point | Free radical % Scavenging [1] | IC50 (Jack bean urease [2]) | further results
O=C(NC(=S)NC12CC3CC(CC(C3)C1)C2)c1ccc(F)cc1 [Compound 3a, N-(Adamantan-1-ylcarbamothioyl)-4-fluorobenzamide] | 180 to 182 °C | 4.18 (0.03) % | 10 nM | 
O=C(NC(=S)NC12CC3CC(CC(C3)C1)C2)c1ccc(Cl)cc1Cl [Compound 3b, N-(Adamantan-1-ylcarbamothioyl)-2,4-dichlorobenzamide] | 204 to 205 °C | 1.46 (0.02) % | 10 nM | 
CCCC(=O)NC(=S)NC12CC3CC(CC(C3)C1)C2 [Compound 3c, N-(Adamantan-1-ylcarbamothioyl)butyramide] | 136 to 137 °C | 2.51 (0.00) % | 30 nM | 
COc1ccc(C(=O)NC(=S)NC23CC4CC(CC(C4)C2)C3)cc1 [Compound 3d, N-(Adamantan-1-ylcarbamothioyl)-4-methoxybenzamide] | 178 to 179 °C | 1.86 (0.01) % | 20 nM | 
O=C(NC(=S)NC12CC3CC(CC(C3)C1)C2)c1ccc(Cl)cc1 [Compound 3e, N-(Adamantan-1-ylcarbamothioyl)-4-chlorobenzamide] | 182 to 183 °C | 13.36 (0.01) % | 30 nM | 
CCCCC(=O)NC(=S)NC12CC3CC(CC(C3)C1)C2 [Compound 3f, N-(Adamantan-1-ylcarbamothioyl)pentanamide] | 141 to 142 °C | 4.26 (0.00) % | 30 nM | 
O=C(NC(=S)NC12CC3CC(CC(C3)C1)C2)c1ccccc1Cl [Compound 3g, N-(Adamantan-1-ylcarbamothioyl)-2-chlorobenzamide] | 185 to 187 °C | 1.12 (0.03) % | 8.7 nM | 
CCCCCCC(=O)NC(=S)NC12CC3CC(CC(C3)C1)C2 [Compound 3h, N-(Adamantan-1-ylcarbamothioyl)heptanamide] | 149 to 151 °C | 15.36 (0.01) % | 10 nM | 
O=C(NC(=S)NC12CC3CC(CC(C3)C1)C2)c1cc([N+](=O)[O-])cc([N+](=O)[O-])c1 [Compound 3i, N-(Adamantan-1-ylcarbamothioyl)-3,5-dinitrobenzamide] | 210 to 211 °C | 5.91 (0.05) % | 10 nM | 
CCCCCCCC(=O)NC(=S)NC12CC3CC(CC(C3)C1)C2 [Compound 3j, N-(Adamantan-1-ylcarbamothioyl)octanamide] | 158 to 159 °C | 9.96 (0.06) % |  | Ki (Jack bean urease [3]): 7 nM; Inhibition Type (Jack bean urease [3]; Lineweaver-Burk plot): Non-Competitive; Vmax (Jack bean urease [3]; inhibitor dose 0.0042 µM): 0.001561 ΔA/Min; Vmax (Jack bean urease [3]; inhibitor dose 0.0085 µM): 0.001224 ΔA/Min; Vmax (Jack bean urease [3]; inhibitor dose 0.017 µM): 0.001208 ΔA/Min
NC(N)=S [Thiourea, reference compound] |  |  |  | IC50 (Jack bean urease [2]; Jack bean urease, 30 min at 37 °C, pH 8.2, mean (SEM), read-out: Urease Activity IC50 ± SEM): 4740 nM
O=C1O[C@H]([C@@H](O)CO)C(O)=C1O [Vitamin C, ascorbic acid, reference compound] |  | 95.15 (0.05) % |  | 
